Reference: patent EP4438030A1, “TERNARY ANTI-SPOT COMBINATION TO LIGHTEN SKIN” (E Grau Active Cosmetics, S.L.U., priority 2023, dated 2024)

Test system: Normal human epidermal melanocytes
Conditions: melanocytes irradiated with ultraviolet light (2.5 J/cm2), 96 hours; mixture 0.0003% hydroxytyrosol, 0.00001% maslinic acid, 0.001% vitamin C (w/w); hydroquinone 10-8% (w/w)
Description: Normal human epidermal melanocytes were cultured in 48-well plates at a density of 2×10^4 cells/well overnight in a CO2 incubator at 37°C in the culture medium called Melanocyte Growth Medium (PromoCell, R.F.A.). The culture medium was then removed and replaced with fresh medium, and the cells were cultured for 96 hours in the presence of a mixture containing 0.0003% (w/w) of hydroxytyrosol, 0.00001% (w/w) of maslinic acid and 0.001% (w/w) of vitamin C. […] To mimic exposure to sunlight, the cells were irradiated with ultraviolet light for the last 48 hours in 4 cycles lasting 15 minutes. Irradiation measurements indicated a total dose of 2.5 J/cm2. Melanin was extracted by adding 1 M sodium hydroxide and incubating at 60°C for 1 h.
In parallel, a cell viability assay was carried out using 3-(4,5-dimethylthiazol-2-yl)-2,5-diphenyltetrazolium bromide dye (MTT Assay) to normalise melanin values to cell levels and thus correct possible interferences due to small variations in the number of cells in each well.

Oc1ccc(O)cc1 [hydroquinone]
reduction of melanin production: 42%
